# Several values for one entry are separate records, joined by “and”; a condition that tells them apart may be missing. Equal entries are not always repeated.
# Biological target: T1, Oxaloacetate decarboxylase (Pseudomonas aeruginosa (strain ATCC 15692 / DSM 22644 / CIP 104116 / JCM 14847 / LMG 12228 / 1C / PRS 101 / PAO1), UniProt Q9HUU1)
# T1 sequence (Q9HUU1 whole entry): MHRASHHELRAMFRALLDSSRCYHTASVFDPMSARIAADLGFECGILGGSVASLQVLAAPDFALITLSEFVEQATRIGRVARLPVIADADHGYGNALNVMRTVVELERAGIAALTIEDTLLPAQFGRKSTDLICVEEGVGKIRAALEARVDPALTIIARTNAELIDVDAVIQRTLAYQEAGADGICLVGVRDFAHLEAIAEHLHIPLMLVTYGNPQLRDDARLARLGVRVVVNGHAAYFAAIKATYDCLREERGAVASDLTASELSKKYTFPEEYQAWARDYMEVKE
# Assay: Inhibition Assay
# From the text: Competitive inhibition constant determined for PA4872 catalyzed oxaloacetate decarboxylation.
row,Ki,SMILES
1,1090 µM and 560 µM,CC(=O)CC(=O)C(=O)O [Acetopyruvate]
2,7200 µM,CC(=O)C(=O)O [Pyruvate]
3,43 µM,O=C(O)C(=O)O
4,6700 µM and 3200 µM,CCCC(=O)C(=O)O [alpha-ketovalerate]

row,SMILES,Ki
1,O=C(O)C(=O)CP(=O)(O)O [Phosphonopyruvate],3000 µM
2,"O=C(O)C(O)(O)C(F)(F)C(=O)O [3,3-Difluoroxaloacetate]",450 µM
